Tests used:
Experiment in all cases: relative viability (nuclei count vs DMSO), 5 days (fraction); higher = more cells survive
[1] = compound: CC(C)C[C@H](NC(=O)[C@H](Cc1ccccc1)NC(=O)c1cnccn1)B(O)O [Bortezomib] + N=C(N)NC(=N)NCCc1ccccc1 [Phenformin] (partner 250 µM)
How it was run: (§1)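 Five library-drug doses in √10 steps were combined with a fixed anchor-drug dose, or a single drug was given alone, by pin tool to lung cancer cell lines in 1536-well plates the day after seeding. Nuclei were stained and counted after 5 days. Relative viability is the nuclei count in treated wells over that in vehicle wells, taken as the median of duplicate plates.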

[2] = compound: CC1=CC(=NN1)NC2=CC(=NC(=N2)/C=C/C3=CC=CC=C3)N4CCN(CC4)C + Cc1nc(Nc2ncc(C(=O)Nc3c(C)cccc3Cl)s2)cc(N2CCN(CCO)CC2)n1 [Dasatinib] (partner 0.075 µM)
How it was run: as §1

[3] = compound: COC1=CC(c2cc3ccccc3[nH]2)=N/C1=C\c1[nH]c(C)cc1C [Obatoclax] + COc1cc2c(Oc3ccc(NC(=O)C4(C(=O)Nc5ccc(F)cc5)CC4)cc3F)ccnc2cc1OCCCN1CCOCC1 [Foretinib] (partner 0.25 µM)
How it was run: as §1

[4] = compound: COC1=CC(c2cc3ccccc3[nH]2)=N/C1=C\c1[nH]c(C)cc1C [Obatoclax] + Nc1ncn([C@H]2C[C@H](O)[C@@H](CO)O2)c(=O)n1 [Decitabine] (partner 2 µM)
How it was run: as §1

Cell Line NCI-H2085 has a relative viability ([1]; first compound 0.0002 µM) of 0.757, a relative viability ([1]; first compound 0.000632 µM) of 0.826 and a relative viability ([1]; first compound 0.002 µM) of 0.693. It also gave a relative viability ([1]; first compound 0.006325 µM) of 0.318, a relative viability ([1]; first compound 0.02 µM) of 0.16 and a relative viability ([2]; first compound 0.08 µM) of 0.245. The relative viability ([2]; first compound 0.253 µM) was 0.232, the relative viability ([2]; first compound 0.8 µM) was 0.276 and the relative viability ([2]; first compound 2.53 µM) was 0.255. For the same cell line, the relative viability ([2]; first compound 8 µM) was 0.2, the relative viability ([3]; first compound 0.01 µM) was 0.761 and the relative viability ([3]; first compound 0.03162 µM) was 0.998. It also gave a relative viability ([3]; first compound 0.1 µM) of 1.14, a relative viability ([3]; first compound 0.3162 µM) of 0.795 and a relative viability ([3]; first compound 1 µM) of 0.531. For the same cell line, the relative viability ([4]; first compound 0.01 µM) was 0.531, the relative viability ([4]; first compound 0.03162 µM) was 0.484 and the relative viability ([4]; first compound 0.1 µM) was 0.524. It also gave a relative viability ([4]; first compound 0.3162 µM) of 0.499 and a relative viability ([4]; first compound 1 µM) of 0.472.

Work on NCI-H1651 yielded a relative viability ([1]; first compound 0.0002 µM) of 0.354, a relative viability ([1]; first compound 0.000632 µM) of 0.312 and a relative viability ([1]; first compound 0.002 µM) of 0.229. The relative viability ([1]; first compound 0.006325 µM) was 0.101, the relative viability ([1]; first compound 0.02 µM) was 0.106 and the relative viability ([2]; first compound 0.08 µM) was 0.423. For the same cell line, the relative viability ([2]; first compound 0.253 µM) was 0.398, the relative viability ([2]; first compound 0.8 µM) was 0.407 and the relative viability ([2]; first compound 2.53 µM) was 0.171. The relative viability ([2]; first compound 8 µM) was 0.116, the relative viability ([3]; first compound 0.01 µM) was 0.766 and the relative viability ([3]; first compound 0.03162 µM) was 0.734. It also gave a relative viability ([3]; first compound 0.1 µM) of 0.774, a relative viability ([3]; first compound 0.3162 µM) of 0.47 and a relative viability ([3]; first compound 1 µM) of 0.42. It also gave a relative viability ([4]; first compound 0.01 µM) of 0.582, a relative viability ([4]; first compound 0.03162 µM) of 0.338 and a relative viability ([4]; first compound 0.1 µM) of 0.434. The relative viability ([4]; first compound 0.3162 µM) was 0.355 and the relative viability ([4]; first compound 1 µM) was 0.495.

RERF-LC-KJ was tested, and the relative viability ([1]; first compound 0.0002 µM) was 0.377, the relative viability ([1]; first compound 0.000632 µM) was 0.42 and the relative viability ([1]; first compound 0.002 µM) was 0.415. The relative viability ([1]; first compound 0.006325 µM) was 0.337, the relative viability ([1]; first compound 0.02 µM) was 0.272 and the relative viability ([2]; first compound 0.08 µM) was 0.908. The relative viability ([2]; first compound 0.253 µM) was 0.944, the relative viability ([2]; first compound 0.8 µM) was 0.837 and the relative viability ([2]; first compound 2.53 µM) was 0.249. The relative viability ([2]; first compound 8 µM) was 0.166, the relative viability ([3]; first compound 0.01 µM) was 0.823 and the relative viability ([3]; first compound 0.03162 µM) was 0.883. The relative viability ([3]; first compound 0.1 µM) was 0.862, the relative viability ([3]; first compound 0.3162 µM) was 0.792 and the relative viability ([3]; first compound 1 µM) was 0.844. The relative viability ([4]; first compound 0.01 µM) was 0.693, the relative viability ([4]; first compound 0.03162 µM) was 0.632 and the relative viability ([4]; first compound 0.1 µM) was 0.643. It also gave a relative viability ([4]; first compound 0.3162 µM) of 0.613 and a relative viability ([4]; first compound 1 µM) of 0.291.

Work on NCI-H1703 yielded a relative viability ([3]; first compound 0.01 µM) of 0.379, a relative viability ([3]; first compound 0.03162 µM) of 0.309 and a relative viability ([3]; first compound 0.1 µM) of 0.301. For the same cell line, the relative viability ([3]; first compound 0.3162 µM) was 0.382 and the relative viability ([3]; first compound 1 µM) was 0.303.

NCI-H522 gave a relative viability ([1]; first compound 0.0002 µM) of 0.58, a relative viability ([1]; first compound 0.000632 µM) of 0.618 and a relative viability ([1]; first compound 0.002 µM) of 0.573. The relative viability ([1]; first compound 0.006325 µM) was 0.62, the relative viability ([1]; first compound 0.02 µM) was 0.448 and the relative viability ([2]; first compound 0.08 µM) was 0.94. For the same cell line, the relative viability ([2]; first compound 0.253 µM) was 0.795, the relative viability ([2]; first compound 0.8 µM) was 0.662 and the relative viability ([2]; first compound 2.53 µM) was 0.482. The relative viability ([2]; first compound 8 µM) was 0.388, the relative viability ([4]; first compound 0.01 µM) was 0.708 and the relative viability ([4]; first compound 0.03162 µM) was 0.642. It also gave a relative viability ([4]; first compound 0.1 µM) of 0.607, a relative viability ([4]; first compound 0.3162 µM) of 0.747 and a relative viability ([4]; first compound 1 µM) of 0.608.

NCI-H1563 gave a relative viability ([1]; first compound 0.0002 µM) of 0.742, a relative viability ([1]; first compound 0.000632 µM) of 0.659 and a relative viability ([1]; first compound 0.002 µM) of 0.636. For the same cell line, the relative viability ([1]; first compound 0.006325 µM) was 0.518, the relative viability ([1]; first compound 0.02 µM) was 0.465 and the relative viability ([2]; first compound 0.08 µM) was 0.462. It also gave a relative viability ([2]; first compound 0.253 µM) of 0.463, a relative viability ([2]; first compound 0.8 µM) of 0.497 and a relative viability ([2]; first compound 2.53 µM) of 0.432. For the same cell line, the relative viability ([2]; first compound 8 µM) was 0.288, the relative viability ([3]; first compound 0.01 µM) was 0.903 and the relative viability ([3]; first compound 0.03162 µM) was 0.91. The relative viability ([3]; first compound 0.1 µM) was 1.04, the relative viability ([3]; first compound 0.3162 µM) was 0.824 and the relative viability ([3]; first compound 1 µM) was 0.806.

For NCI-H1623, the relative viability ([1]; first compound 0.0002 µM) was 0.538, the relative viability ([1]; first compound 0.000632 µM) was 0.594 and the relative viability ([1]; first compound 0.002 µM) was 0.623. The relative viability ([1]; first compound 0.006325 µM) was 0.577, the relative viability ([1]; first compound 0.02 µM) was 0.307 and the relative viability ([2]; first compound 0.08 µM) was 0.469. For the same cell line, the relative viability ([2]; first compound 0.253 µM) was 0.559, the relative viability ([2]; first compound 0.8 µM) was 0.614 and the relative viability ([2]; first compound 2.53 µM) was 0.494. For the same cell line, the relative viability ([2]; first compound 8 µM) was 0.543, the relative viability ([3]; first compound 0.01 µM) was 0.95 and the relative viability ([3]; first compound 0.03162 µM) was 0.81. It also gave a relative viability ([3]; first compound 0.1 µM) of 0.984, a relative viability ([3]; first compound 0.3162 µM) of 0.839 and a relative viability ([3]; first compound 1 µM) of 0.896.

NCI-H1792 gave a relative viability ([1]; first compound 0.0002 µM) of 0.534, a relative viability ([1]; first compound 0.002 µM) of 0.173 and a relative viability ([1]; first compound 0.006325 µM) of 0.0935. The relative viability ([1]; first compound 0.02 µM) was 0.0823, the relative viability ([2]; first compound 0.08 µM) was 0.749 and the relative viability ([2]; first compound 0.253 µM) was 0.848. It also gave a relative viability ([2]; first compound 0.8 µM) of 0.733, a relative viability ([2]; first compound 2.53 µM) of 0.525 and a relative viability ([2]; first compound 8 µM) of 0.151. It also gave a relative viability ([4]; first compound 0.01 µM) of 0.58, a relative viability ([4]; first compound 0.03162 µM) of 0.469 and a relative viability ([4]; first compound 0.1 µM) of 0.537. It also gave a relative viability ([4]; first compound 0.3162 µM) of 0.427 and a relative viability ([4]; first compound 1 µM) of 0.581.

NCI-H2228 gave a relative viability ([1]; first compound 0.0002 µM) of 0.271, a relative viability ([1]; first compound 0.000632 µM) of 0.31 and a relative viability ([1]; first compound 0.002 µM) of 0.257. The relative viability ([1]; first compound 0.006325 µM) was 0.0882, the relative viability ([1]; first compound 0.02 µM) was 0.0761 and the relative viability ([2]; first compound 0.08 µM) was 0.448. It also gave a relative viability ([2]; first compound 0.253 µM) of 0.539, a relative viability ([2]; first compound 0.8 µM) of 0.369 and a relative viability ([2]; first compound 2.53 µM) of 0.0563. For the same cell line, the relative viability ([2]; first compound 8 µM) was 0.0381, the relative viability ([3]; first compound 0.01 µM) was 0.851 and the relative viability ([3]; first compound 0.03162 µM) was 0.867. The relative viability ([3]; first compound 0.1 µM) was 0.861, the relative viability ([3]; first compound 0.3162 µM) was 0.759 and the relative viability ([3]; first compound 1 µM) was 0.511.

IA-LM showed a relative viability ([3]; first compound 0.01 µM) of 1.17, a relative viability ([3]; first compound 0.03162 µM) of 1.18 and a relative viability ([3]; first compound 0.1 µM) of 1.03. For the same cell line, the relative viability ([3]; first compound 0.3162 µM) was 0.624 and the relative viability ([3]; first compound 1 µM) was 0.0739.

With EBC-1 the relative viability ([3]; first compound 0.01 µM) was 0.102, the relative viability ([3]; first compound 0.03162 µM) was 0.112 and the relative viability ([3]; first compound 0.1 µM) was 0.119. It also gave a relative viability ([3]; first compound 0.3162 µM) of 0.119 and a relative viability ([3]; first compound 1 µM) of 0.113.

In the case of NCI-H1648, the relative viability ([4]; first compound 0.01 µM) is reported as 0.594, the relative viability ([4]; first compound 0.03162 µM) is reported as 0.421 and the relative viability ([4]; first compound 0.1 µM) is reported as 0.829. It also gave a relative viability ([4]; first compound 0.3162 µM) of 0.447 and a relative viability ([4]; first compound 1 µM) of 0.39.

With NCI-H1299 the relative viability ([3]; first compound 0.01 µM) was 1.08, the relative viability ([3]; first compound 0.03162 µM) was 1.12 and the relative viability ([3]; first compound 0.1 µM) was 1.08. It also gave a relative viability ([3]; first compound 0.3162 µM) of 1.08 and a relative viability ([3]; first compound 1 µM) of 1.05.

— the supplement of paper PMC10307832
